In PMC11280343, “Rubus urticifolius Compounds with Antioxidant Activity, and Inhibition Potential against Tyrosinase, Melanin, Hyaluronidase, Elastase, and Collagenase” (Pharmaceuticals, 2024):
pEC50, pIC50: −log10 of the molar value. Where “and” joins values, the source holds several entries; their conditions need not be identical. Identical values can stand only once. Like-named read-outs stand apart in the source and are kept apart here. Numbered stars: 1 amine (or outer) side, 2 acyl side, 3 side chain; on linkers, the order of the positions; unused ones are H or OH. Bridge positions count the residues as written; N and C are the ends. Square brackets hold non-standard residues; d marks the D form. Peptide text beside a SMILES is read from it. I, II: the chains in the order shown. Actinocin(9to1) = Cc1c2oc3c(C)ccc(C(=O)[*:1])c3nc-2c(C(=O)[*:2])c(N)c1=O; NMeV = CN[C@H](C(=O)O)C(C)C; Sar = CNCC(=O)O

Assays:
NR viability assay, WS1 = assay type: cell-based, Homo sapiens; settings: human; WS1, NR assay, 72 h; read-out: Viability CC50
Protocol: (§1) The HEK001 (Homo sapiens cutaneous keratinocyte, CCL-2404), WS1 (Homo sapiens cutaneous fibroblast, CRL-1502), HMCB (Homo sapiens cutaneous melanoma, CRL-9607), and THP-1 (Homo sapiens peripheral blood monocyte, TIB-202) cell lines used in this study were obtained from the American Type Culture Collection (ATCC, Manassas, VA, USA). Cultivated in a Roswell Park Memorial Institute (RPMI) 1640 medium (RPMI 1640 Merck, Cat. No. R7755, New York, NY, USA) supplemented with 2 mM L-glutamine (≥99% Merck, Cat. No. 56-85-9), 10% fetal bovine serum (FBS Merck, Cat. No. TMS-016, St. Louis, MO, USA), and 10,000 units of penicillin and 10 mg streptomycin/mL (Merck, Cat. No. P4333, St. Louis, MO, USA) in culture flasks, the cells were maintained in an incubator under normoxic conditions (20–21% O2) and a humidified atmosphere (5% CO2 at 37 °C).
(§2) Mother solutions of samples (extracts, fractions, and compounds) were prepared at a concentration of […] using dimethyl sulfoxide (DMSO ≥ 99.9% Merck, Cat. No. 67-68-5, St. Louis, MO, USA) as the solvent. From these mother solutions, dilutions were prepared at concentrations ranging from 100 to 0.20 μg/mL or μM in culture medium containing 0.5% DMSO. Additionally, a negative control group consisting solely of culture medium with 0.5% DMSO was included to assess its potential cytotoxic effect on the cells.
(§3) Cell viability was evaluated using a colorimetric assay in 96-well plates, employing 3-amino-7-dimethylamino-2-methylphenazine hydrochloride salt reagent (NR, Merck, Cat. No. 553-24-2, St. Louis, MO, USA).
(§4) HEK001, WS1, HMCB, and THP-1 cell lines were cultured in 96-well plates at 37 °C with 5% CO2 until > 90% confluency was achieved (1 × 10^6 cells/well). Subsequently, the cultures were treated with sample dilutions (100–0.20 μg/mL or μM) for 72 h at 37 °C with 5% CO2 in phenol red-free RPMI. The supernatant was then discarded and the cells were washed with phosphate-buffered saline (PBS) before being incubated with […] NR (50 μg/mL; 173 μM) for 3 h at 37 °C with 5% CO2. NR labelling was performed after DMSO treatment. After incubation, the labelled sample dilutions were rapidly washed with a fixative solution composed of 1% calcium chloride (CaCl2 Merck, Cat. No. 10043-52-4, St. Louis, MO, USA) and 0.5% formaldehyde solution (≥36.0% in H2O Merck, Cat. No. 50-00-0, St. Louis, MO, USA), then diluted with 100 μL of the NR extraction solution. Finally, the plates were read at 540 nm using a microplate reader (Anthos 2020, version 2.0.5, Biochrom Ltd., Cambridge, UK).

NR viability assay, HMCB = assay type: cell-based, Homo sapiens; settings: human; HMCB, NR assay, 72 h; read-out: Viability CC50
Protocol: as §1, §2, §3, §4

[1] = NR viability assay, THP-1; assay type: cell-based, Homo sapiens; settings: human, THP-1, NR assay, 72 h; read-out: Viability CC50
Protocol: as §1, §2, §3, §4

[2] = NR viability assay, HEK001; assay type: cell-based, Homo sapiens; settings: human; HEK001, NR assay, 72 h; read-out: Viability CC50
Protocol: as §1, §2, §3, §4

[3] = system: HEK001, WS1, HMCB, and THP-1 cell lines; assay: Viability assay, positive control value of the method (cell line not stated); assay type: cell-based; settings: Homo sapiens
Protocol: as §3, §4

Nrf2 [4] = assay: Nrf2 activation assay, positive control value of the method (cell line not stated); assay type: cell-based; settings: Homo sapiens
Protocol: (§5) To determine the antioxidant response of the samples (at the same concentration as in the viability assay), Nrf2 activation assay was used, following the protocol carried out by Apaza Ticona et al.. Cells were cultured in 96-well plates (1 × 10^6 cells/well). […] Absorbance was measured at 540 nm using a microplate reader.

Nrf2 [5] = assay: Nrf2 activation assay, HMCB; assay type: cell-based; settings: Homo sapiens, 72 h, read-out: Activation of Nrf2 production EC50
Protocol: as §5

Nrf2 [6] = assay: Nrf2 activation assay, HEK001; assay type: cell-based; settings: Homo sapiens, HEK001, 72 h; read-out: Activation of Nrf2 production EC50
Protocol: as §5

Nrf2 [7] = assay: Nrf2 activation assay, WS1; assay type: cell-based; settings: Homo sapiens; WS1, 72 h; read-out: Activation of Nrf2 production EC50
Protocol: as §5

Nrf2 [8] = assay: Nrf2 activation assay, THP-1; assay type: cell-based; settings: Homo sapiens, THP-1, 72 h; read-out: Activation of Nrf2 production EC50
Protocol: as §5

NF-κB [9] = assay: NF-κB inhibition assay (LPS-stimulated), THP-1; assay type: cell-based; settings: Homo sapiens, THP-1, 72 h, read-out: NF-κB Inhibition at 72 h IC50 ± SEM
Protocol: as §5, with “anti-inflammatory activity” for “antioxidant response”, “NF-κB inhibition” for “Nrf2 activation”, “450” for “540”

NF-κB [10] = assay: NF-κB inhibition assay (LPS-stimulated), WS1; assay type: cell-based; settings: Homo sapiens, 72 h, read-out: NF-κB Inhibition at 72 h IC50 ± SEM
Protocol: as §5, with “anti-inflammatory activity” for “antioxidant response”, “NF-κB inhibition” for “Nrf2 activation”, “450” for “540”

NF-κB [11] = assay: NF-κB inhibition assay (LPS-stimulated), HMCB; assay type: cell-based; settings: Homo sapiens, 72 h, read-out: NF-κB Inhibition at 72 h IC50 ± SEM
Protocol: as §5, with “anti-inflammatory activity” for “antioxidant response”, “NF-κB inhibition” for “Nrf2 activation”, “450” for “540”

NF-κB [12] = assay: NF-κB inhibition assay (LPS-stimulated), HEK001; assay type: cell-based; settings: Homo sapiens, HEK001, 72 h, read-out: NF-κB Inhibition at 72 h IC50 ± SEM
Protocol: as §5, with “anti-inflammatory activity” for “antioxidant response”, “NF-κB inhibition” for “Nrf2 activation”, “450” for “540”

NF-κB [13] = assay: NF-κB inhibition assay, positive control value of the method (cell line not stated); assay type: cell-based; settings: Homo sapiens
Protocol: as §5, with “anti-inflammatory activity” for “antioxidant response”, “NF-κB inhibition” for “Nrf2 activation”, “450” for “540”

[14] = molecular target: T1, elastase from porcine pancreas (Sus scrofa, UniProt P00772); assay: Elastase-inhibitory effect assay; assay type: biochemical
T1 construct: elastase from porcine pancreas (7.5 units/mL); from tissue; host or cells: porcine pancreas
Protocol: The elastase-inhibitory effect was evaluated, implementing the protocol adapted from Tu and Tawata.
A mixture containing N-succinyl-Ala-Ala-Ala-p-nitroanilide (AAAPVN, Merck, Cat. No. 52299-14-6, St. Louis, MO, USA) elastase substrate in 0.1232 M Tris-HCl buffer solution (pH 8) was prepared to achieve a concentration of 1.015 mM. This elastase substrate was combined with 10 μL of the test samples at the same concentrations used as in the viability assay in 96-well plates and pre-incubated at room temperature (25 ± 5 °C) for 10 min. Subsequently, the reaction was initiated by adding 10 μL of elastase from porcine pancreas (7.5 units/mL) in Tris buffer solution to the pre-incubated mixtures. Absorbance was then measured at 410 nm using a microplate reader.

collagenase = assay: Collagenase inhibitory assay; assay type: biochemical
Protocol: A fixed weight of 1 mg of azo dye-impregnated collagen was measured in the test tubes. Subsequently, 800 μL of 0.1 M Tris-HCl (pH 7) and 100 μL of the samples at the same concentrations used as in the viability assay were added to each test tube. Next, 100 μL of collagenase (200 units/mL) was immediately mixed into the mixture and the tubes were incubated at 43 °C for 1 h. After incubation, the test tubes were centrifuged at 3000 rpm for 10 min. The supernatant from each tube was transferred into 96-well plates and the absorbance of each supernatant was measured at 550 nm using a microplate reader.

[15] = system: melanin production in HMCB cells; assay: Melanin content assay; assay type: cell-based; settings: Homo sapiens; HMCB cells, 12 h; read-out: Inhibitory activity of melanin production IC50
Protocol: as §5, with “anti-melanogenic activity” for “antioxidant response”, “melanin inhibition” for “Nrf2 activation”, “HMCB cells” for “Cells”, “405” for “540”

hyaluronidase = molecular target: T2, hyaluronidase (Bos taurus, UniProt Q2YDK3); settings: cited from earlier work; for Inhibition of active hyaluronidase: 2 mM
T2 sequence (Q2YDK3 36-553): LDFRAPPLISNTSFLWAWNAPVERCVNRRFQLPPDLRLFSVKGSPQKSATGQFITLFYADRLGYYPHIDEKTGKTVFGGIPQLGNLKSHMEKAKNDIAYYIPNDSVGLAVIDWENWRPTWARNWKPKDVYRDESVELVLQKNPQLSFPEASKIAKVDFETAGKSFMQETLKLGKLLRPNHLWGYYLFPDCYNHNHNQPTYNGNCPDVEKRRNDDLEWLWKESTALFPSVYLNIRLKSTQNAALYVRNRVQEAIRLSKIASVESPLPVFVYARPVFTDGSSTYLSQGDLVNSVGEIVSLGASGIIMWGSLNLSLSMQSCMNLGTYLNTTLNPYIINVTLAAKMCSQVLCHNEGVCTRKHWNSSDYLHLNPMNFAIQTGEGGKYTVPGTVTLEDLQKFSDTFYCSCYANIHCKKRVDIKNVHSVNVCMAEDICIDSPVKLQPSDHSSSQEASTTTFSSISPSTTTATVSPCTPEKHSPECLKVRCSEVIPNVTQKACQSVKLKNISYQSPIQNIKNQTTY

[16] = equivalent value for the compounds
[17] = value for the extracts and fractions
[18] = inhibition percentage 'at an IC50', concentration not otherwise stated

T1 sequence (P00772 27-266): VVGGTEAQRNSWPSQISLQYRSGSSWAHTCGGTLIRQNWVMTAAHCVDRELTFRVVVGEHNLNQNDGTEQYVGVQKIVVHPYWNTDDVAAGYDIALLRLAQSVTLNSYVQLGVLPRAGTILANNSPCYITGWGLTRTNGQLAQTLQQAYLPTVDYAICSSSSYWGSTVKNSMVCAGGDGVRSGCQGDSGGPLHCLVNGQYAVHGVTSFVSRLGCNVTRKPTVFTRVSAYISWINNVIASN

## Cc1c2oc3c(C)ccc(C(=O)N[C@@H]4C(=O)N[C@H](C(C)C)C(=O)N5CCC[C@H]5C(=O)N(C)CC(=O)N(C)[C@@H](C(C)C)C(=O)O[C@@H]4C)c3nc-2c(C(=O)N[C@@H]2C(=O)N[C@H](C(C)C)C(=O)N3CCC[C@H]3C(=O)N(C)CC(=O)N(C)[C@@H](C(C)C)C(=O)O[C@@H]2C)c(N)c1=O [ACTD, Actinomycin D, reference compound] (I: T[dV]P[Sar][NMeV] / II: T[dV]P[Sar][NMeV]; ester I:1-I:C, II:1-II:C; linker I:N-II:N via Actinocin(9to1))
NR viability assay, WS1
  CC50 at 72 h: 0.0173 µg/mL and 8 nM
NR viability assay, HMCB
  CC50 at 72 h: 0.0161 µg/mL and 7 nM
[1]
  CC50 at 72 h: 0.0192 µg/mL and 9 nM
[2]
  CC50 at 72 h: 0.0184 µg/mL and 9 nM
[3]; [16]
  pIC50: 8.10
[3]; [17]
  IC50: 0.01 µg/mL

## COC(=O)[C@]12CCC(C)(C)C[C@H]1[C@H]1C(=O)C=C3[C@@]4(C)C=C(C#N)C(=O)C(C)(C)[C@@H]4CC[C@@]3(C)[C@]1(C)CC2 [CDDO-Me, 2-Cyano-3,12-dioxo-oleana-1,9(11)-dien-28-oic acid methyl ester, reference compound]
Nrf2 [4]; [16]
  pEC50: 9.96
Nrf2 [4]; [17]
  EC50: 0.07 ng/mL
Nrf2 [5]
  EC50: 7e-05 µg/mL and 0.1 nM
Nrf2 [6]
  EC50: 5e-05 µg/mL and 0.08 nM
Nrf2 [7]
  EC50: 6e-05 µg/mL and 0.09 nM
Nrf2 [8]
  EC50: 8e-05 µg/mL and 0.13 nM

## CC1=C(O)C(=O)C=C2C1=CC=C1[C@@]2(C)CC[C@@]2(C)[C@@H]3C[C@](C)(C(=O)O)CC[C@]3(C)CC[C@]12C [Celastrol, reference compound]
NF-κB [9]
  IC50: 7.62 µM and 3.35 µg/mL
NF-κB [10]
  IC50: 7.41 µM and 3.29 µg/mL
NF-κB [11]
  IC50: 7.36 µM and 3.27 µg/mL
NF-κB [12]
  IC50: 7.57 µM and 3.33 µg/mL
NF-κB [13]; [16]
  pIC50: 5.13
NF-κB [13]; [17]
  IC50: 3.34 µg/mL

## O=C(O[C@@H]1Cc2c(O)cc(O)cc2O[C@@H]1c1cc(O)c(O)c(O)c1)c1cc(O)c(O)c(O)c1 [EGCG, Epigallocatechin gallate, reference compound]
[14]; [18]
  Elastase Inhibition (%): 98.08 ± 1.74% and 94.44 ± 1.30%
[14]; marked (*)
  Anti-Elastase IC50: 114 µg/mL and 114.38 ± 3.07 µg/mL
[14]; read-out: Anti-Elastase IC50
  pIC50: 3.60
collagenase; [18]
  Collagenase Inhibition (%): 98.81 ± 1.42% and 95.29 ± 2.09%
collagenase; marked (*)
  Anti-Collagenase IC50: 114 µg/mL and 114.04 ± 3.07 µg/mL
collagenase; read-out: Anti-Collagenase IC50
  pIC50: 3.60

## O=c1cc(CO)occ1O [Kojic acid, reference compound]
[15]
  pIC50: 4.79

## COc1ccc(/C=C/C(=O)Nc2ccccc2C(=O)O)cc1OC [Tranilast]
hyaluronidase; activator added
  Inhibition of active hyaluronidase: 50%
hyaluronidase
  Inhibition of active hyaluronidase: 75%

## O=C(O)/C=C/c1ccccc1 [trans-cinnamic acid]
hyaluronidase
  Hyaluronidase inhibition: more than 60%
